In this assay the target is T1, human kinase Mps-1 (Homo sapiens, UniProt P33981).
T1 construct: N-terminally GST-tagged human full length recombinant Mps-1 kinase; GST (N); purchased Invitrogen, Karslruhe, Germany PV4071
T1 sequence (P33981 1-857): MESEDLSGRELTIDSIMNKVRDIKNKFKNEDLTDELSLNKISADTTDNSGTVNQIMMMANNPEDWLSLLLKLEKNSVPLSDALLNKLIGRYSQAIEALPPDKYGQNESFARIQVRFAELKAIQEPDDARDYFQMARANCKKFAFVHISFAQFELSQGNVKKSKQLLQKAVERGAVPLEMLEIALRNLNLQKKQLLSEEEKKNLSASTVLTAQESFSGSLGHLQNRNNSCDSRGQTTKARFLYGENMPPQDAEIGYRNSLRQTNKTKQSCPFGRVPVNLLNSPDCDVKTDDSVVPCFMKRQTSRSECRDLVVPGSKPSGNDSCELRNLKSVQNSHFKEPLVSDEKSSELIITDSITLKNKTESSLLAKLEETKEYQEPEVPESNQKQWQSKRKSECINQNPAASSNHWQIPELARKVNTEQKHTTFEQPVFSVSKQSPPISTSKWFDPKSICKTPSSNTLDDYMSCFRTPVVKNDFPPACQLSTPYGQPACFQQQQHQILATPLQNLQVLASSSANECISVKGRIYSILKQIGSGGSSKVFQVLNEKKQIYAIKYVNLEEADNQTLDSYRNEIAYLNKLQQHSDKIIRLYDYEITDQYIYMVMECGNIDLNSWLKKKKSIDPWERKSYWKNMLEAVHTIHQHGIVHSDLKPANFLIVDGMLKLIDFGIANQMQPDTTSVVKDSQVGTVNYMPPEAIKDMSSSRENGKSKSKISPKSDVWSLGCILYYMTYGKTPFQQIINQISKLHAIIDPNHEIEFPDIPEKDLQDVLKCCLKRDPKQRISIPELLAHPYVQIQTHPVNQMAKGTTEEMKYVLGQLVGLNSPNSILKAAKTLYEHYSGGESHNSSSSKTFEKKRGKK
Put plainly: Mps-1 kinase assay (HTRF). In kind it is biochemical. On the technique in general: TR-FRET usually uses a lanthanide donor and a delayed reading to cut background.

The text below walks through data of patent US20130121994A1, “TRIAZOLOPYRIDINE DERIVATIVES” (BAYER INTELLECTUAL PROPERTY GMBH, priority 2009, published 2013).

Some results are limits rather than exact numbers.

For orientation: IC50 means the concentration that gives 50% inhibition. A low value points to inhibition by little substance.

For `CCOc1cc(C(=O)N(C)CCO)ccc1Nc1nc2ccc(-c3ccc(C(=O)NCC(F)(F)F)cc3)cn2n1` [Example 11.033, 3-ethoxy-N-(2-hydroxyethyl)-N-methyl-4-[(6-{4-[(2,2,2-trifluoroethyl)carbamoyl]phenyl}[1,2,4]triazolo [1,5-a]pyridin-2-yl)amino]benzamide], the IC50 is not above 1 nM.

The compound `CCOc1cc(C(=O)NCC(C)(C)O)ccc1Nc1nc2ccc(-c3ccc(C(=O)NCCC(F)(F)F)cc3)cn2n1` [Example 11.034, 3-ethoxy-N-(2-hydroxy-2-methylpropyl)-4-[(6-{4-[(3,3,3-trifluoropropyl)carbamoyl]phenyl}[1,2,4]tria-zolo[1,5-a]pyridin-2-yl)amino]benzamide] yielded an IC50 of 1.38 nM.

On to `CCOc1cc(C(=O)NC(C)(C)CO)ccc1Nc1nc2ccc(-c3ccc(C(=O)NCC(C)C)cc3)cn2n1` [Example 11.035, 3-ethoxy-N-(1-hydroxy-2-methylpropan-2-yl)-4-[(6-{4-[(2-methylpropyl)carbamoyl]phenyl}[1,2,4]triazolo [1,5-a]pyridin-2-yl)amino]benzamide], for which the IC50 came to 1.92 nM.

`CCOc1cc(C(=O)NCC(C)(C)O)ccc1Nc1nc2ccc(-c3ccc(C(=O)NCC(C)C)cc3)cn2n1` [Example 11.036, 3-ethoxy-N-(2-hydroxy-2-methylpropyl)-4-[(6-{4-[(2-methylpropyl)carbamoyl]phenyl}[1,2,4]triazolo [1,5-a]pyridin-2-yl)amino]benzamide]: half-maximal inhibition (IC50) required 2.58 nM.

As for `O=C(NCCO)c1ccc(Nc2nc3ccc(-c4ccc(C(=O)NCC(F)(F)F)cc4)cn3n2)c(OCC(F)(F)F)c1` [Example 11.037, N-(2-hydroxyethyl)-3-(2,2,2-trifluoroethoxy)-4-[(6-{4-[(2,2,2-trifluoroethyl)carbamoyl]phenyl}[1,2,4]triazolo [1,5-a]pyridin-2-yl)amino]benzamide], the concentration for half-maximal inhibition (IC50) is not above 1 nM.

Consider `CCN(CC)C(=O)c1ccc(Nc2nc3ccc(-c4ccc(C(=O)NCC(F)(F)F)cc4)cn3n2)cc1` [Example 11.038, N,N-diethyl-4-[(6-{4-[(2,2,2-trifluoroethyl)carbamoyl]phenyl}[1,2,4]triazolo [1,5-a]pyridin-2-yl)amino]benzamide], for which the half-inhibitory concentration (IC50) was 10.5 nM.

The compound `C[C@@H](NC(=O)c1cccc(-c2ccc3nc(Nc4ccccc4C#N)nn3c2)c1)C(C)(C)C` [Example 11.039, 3-{2-[(2-cyanophenyl)amino][1,2,4]triazolo[1,5-a]pyridin-6-yl}-N-[(2R)-3,3-dimethylbutan-2-yl]benzamide] gave a half-inhibitory concentration (IC50) of 1.71 nM.

`C[C@@H](NC(=O)c1cccc(-c2ccc3nc(Nc4ccccc4C#N)nn3c2)c1)C(F)(F)F` [Example 11.040, 3-{2-[(2-cyanophenyl)amino][1,2,4]triazolo[1,5-a]pyridin-6-yl}-N-[(2R)-1,1,1-trifluoropropan-2-yl]benzamide] showed a 50% inhibitory concentration (IC50) of 1.27 nM.

The compound `CC(F)(F)CNC(=O)c1cccc(-c2ccc3nc(Nc4ccccc4C#N)nn3c2)c1` [Example 11.041, 3-{2-[(2-cyanophenyl)amino][1,2,4]triazolo[1,5-a]pyridin-6-yl}-N-(2,2-difluoropropyl)benzamide] showed an IC50 of 2.54 nM.

In turn, `CC(C)(C)CNC(=O)c1cccc(-c2ccc3nc(Nc4ccccc4C#N)nn3c2)c1` [Example 11.042, 3-{2-[(2-cyanophenyl)amino][1,2,4]triazolo[1,5-a]pyridin-6-yl}-N-(2,2-dimethylpropyl)benzamide] displayed a concentration for half-maximal inhibition (IC50) not above 1 nM.

In turn, `N#Cc1ccccc1Nc1nc2ccc(-c3cccc(C(=O)NCC(F)(F)C(F)(F)F)c3)cn2n1` [Example 11.043, 3-{2-[(2-cyanophenyl)amino][1,2,4]triazolo[1,5-a]pyridin-6-yl}-N-(2,2,3,3,3-pentafluoropropyl)benzamide] yielded a 50% inhibitory concentration (IC50) not above 1 nM.

For `N#Cc1ccccc1Nc1nc2ccc(-c3cccc(C(=O)NCC(F)(F)F)c3)cn2n1` [Example 11.044, 3-{2-[(2-cyanophenyl)amino][1,2,4]triazolo[1,5-a]pyridin-6-yl}-N-(2,2,2-trifluoroethyl)benzamide], half-maximal inhibition (IC50) required 1.47 nM.

Compound `CC(C)(C)NC(=O)c1cccc(-c2ccc3nc(Nc4ccccc4C#N)nn3c2)c1` [Example 11.045, N-tert-butyl-3-{2-[(2-cyanophenyl)amino][1,2,4]triazolo[1,5-a]pyridin-6-yl}benzamide] displayed an IC50 of 1.18 nM.

`CC(C)(CO)NC(=O)c1cccc(-c2ccc3nc(Nc4ccccc4C#N)nn3c2)c1` [Example 11.046, 3-{2-[(2-cyanophenyl)amino][1,2,4]triazolo[1,5-a]pyridin-6-yl}-N-(1-hydroxy-2-methylpropan-2-yl)benzamide]: the IC50 amounted to 3.29 nM. Compared with the last compound, the IC50 is about 2.8-fold higher.

`CC(C)[C@@H](C)NC(=O)c1cccc(-c2ccc3nc(Nc4ccccc4C#N)nn3c2)c1` [Example 11.047, 3-{2-[(2-cyanophenyl)amino][1,2,4]triazolo[1,5-a]pyridin-6-yl}-N-[(2R)-3-methylbutan-2-yl]benzamide] had a half-inhibitory concentration (IC50) of 4.15 nM.

For the compound `N#Cc1ccccc1Nc1nc2ccc(-c3cccc(C(=O)NCCC(F)(F)F)c3)cn2n1` [Example 11.048, 3-{2-[(2-cyanophenyl)amino][1,2,4]triazolo[1,5-a]pyridin-6-yl}-N-(3,3,3-trifluoropropyl)benzamide], the IC50 came to 3.95 nM. The IC50 values of the last two compounds are within 1.5-fold of each other.

In the case of `CC(C)CNC(=O)c1cccc(-c2ccc3nc(Nc4ccccc4C#N)nn3c2)c1` [Example 11.049, 3-{2-[(2-cyanophenyl)amino][1,2,4]triazolo[1,5-a]pyridin-6-yl}-N-isobutylbenzamide], the half-maximal inhibitory concentration (IC50) came to 3.39 nM.

On to `N#Cc1ccccc1Nc1nc2ccc(-c3cccc(C(=O)NCC(F)F)c3)cn2n1` [Example 11.050, 3-{2-[(2-cyanophenyl)amino][1,2,4]triazolo[1,5-a]pyridin-6-yl}-N-(2,2-difluoroethyl)benzamide], for which the IC50 came out at 4.18 nM.

Regarding `CC(C)[C@H](C)NC(=O)c1cccc(-c2ccc3nc(Nc4ccccc4C#N)nn3c2)c1` [Example 11.051, 3-{2-[(2-cyanophenyl)amino][1,2,4]triazolo[1,5-a]pyridin-6-yl}-N-[(2S)-3-methylbutan-2-yl]benzamide], inhibition was half-maximal at 5.68 nM (IC50).

In turn, `CCCNC(=O)c1cccc(-c2ccc3nc(Nc4ccccc4C#N)nn3c2)c1` [Example 11.052, 3-{2-[(2-cyanophenyl)amino][1,2,4]triazolo[1,5-a]pyridin-6-yl}-N-propylbenzamide] yielded an IC50 of 6.37 nM. The IC50 values of the last two compounds are within 1.5-fold of each other.

The compound `N#Cc1ccccc1Nc1nc2ccc(-c3cccc(C(=O)NCCF)c3)cn2n1` [Example 11.054, 3-{2-[(2-cyanophenyl)amino][1,2,4]triazolo[1,5-a]pyridin-6-yl}-N-(2-fluoroethyl)benzamide] showed a half-maximal inhibitory concentration (IC50) of 6.13 nM.

Compound `CC(C)(C)CCNC(=O)c1cccc(-c2ccc3nc(Nc4ccccc4C#N)nn3c2)c1` [Example 11.055, 3-{2-[(2-cyanophenyl)amino][1,2,4]triazolo[1,5-a]pyridin-6-yl}-N-(3,3-dimethylbutyl)benzamide] registered an IC50 of 9.81 nM.

On to `CC(C)(C)CNC(=O)c1cc(F)cc(-c2ccc3nc(Nc4ccccc4C#N)nn3c2)c1` [Example 11.056, 3-{2-[(2-cyanophenyl)amino][1,2,4]triazolo[1,5-a]pyridin-6-yl}-N-(2,2-dimethylpropyl)-5-fluorobenzamide], for which the midpoint of inhibition, the IC50, lay at 9.21 nM.

As for `C[C@H](NC(=O)c1cccc(-c2ccc3nc(Nc4ccccc4C#N)nn3c2)c1)C(C)(C)C` [Example 11.057, 3-{2-[(2-cyanophenyl)amino][1,2,4]triazolo[1,5-a]pyridin-6-yl}-N-[(2S)-3,3-dimethylbutan-2-yl]benzamide], it took 12.2 nM to reach half-maximal inhibition (IC50).

In turn, `CC(C)(C)CNC(=O)c1cccc(-c2ccc3nc(Nc4ccccc4C#N)nn3c2)c1F` [Example 11.058, 3-{2-[(2-cyanophenyl)amino][1,2,4]triazolo[1,5-a]pyridin-6-yl}-N-(2,2-dimethylpropyl)-2-fluorobenzamide] returned a half-maximal inhibitory concentration (IC50) of 12.8 nM. The IC50 values of the last two compounds are within 1.5-fold of each other.

Turning to `N#Cc1ccccc1Nc1nc2ccc(-c3cc(F)cc(C(=O)NCC(F)(F)F)c3)cn2n1` [Example 11.059, 3-{2-[(2-cyanophenyl)amino][1,2,4]triazolo[1,5-a]pyridin-6-yl}-5-fluoro-N-(2,2,2-trifluoroethyl)benzamide], it took 12.6 nM to reach half-maximal inhibition (IC50).

In turn, `COC(C)(C)CNC(=O)c1cccc(-c2ccc3nc(Nc4ccccc4C#N)nn3c2)c1` [Example 11.060, 3-{2-[(2-cyanophenyl)amino][1,2,4]triazolo[1,5-a]pyridin-6-yl}-N-(2-methoxy-2-methylpropyl)benzamide] yielded a half-maximal inhibitory concentration (IC50) of 9.04 nM.

With `N#Cc1ccccc1Nc1nc2ccc(-c3cccc(C(=O)NCC(F)(F)F)c3F)cn2n1` [Example 11.061, 3-{2-[(2-cyanophenyl)amino][1,2,4]triazolo[1,5-a]pyridin-6-yl}-2-fluoro-N-(2,2,2-trifluoroethyl)benzamide], it took 12.9 nM to reach half-maximal inhibition (IC50).
